From patent US5817624A, “Permeation enhancer compositions for increased absorption of therapeutic proteins through the colonic membrane” (Alza Corporation, priority 1995, dated 1998)
Several values for one entry are separate records, joined by “and”; a condition that tells them apart may be missing. Identical values can stand only once. Like-named read-outs stand apart in the source and are kept apart here.

Test system: fasted anesthetized Sprague-Dawley male rats
Conditions: for % Maximum Decrease 0-60 mins (blood glucose): sodium bovine insulin 0.5 mg/kg, 1 mL peanut oil, intracolonic bolus, n = 3-4
Text: An animal model commonly known as the "intracolonic ligated model" was employed for testing formulations. Surgical preparation of a fasted anesthetized 0.3-0.5 kg Sprague-Dawley male rats proceeded as follows. A segment of proximal colon was isolated and the colon was flushed of fecal materials. The segment was ligated at both ends while a catheter was placed in the lumen and exteriorized above the skin for delivery of test formulation. The colonic contents were flushed out and the colon was returned to the abdomen of the animal. Depending on the experimental set up, the test formulation was added after the segment was filled with 1 mL/kg of 20 mM sodium phosphate buffer, pH 7.4, to more accurately simulate the actual colon environment in a clinical situation.
Rats were allowed to equilibrate for approximately 1 hour after surgical preparation and prior to exposure to each test formulation. Immediately prior to test solution administration, a 0.3-0.5 mL blood sample was taken from the jugular catheter of the rats and analyzed for glucose content using an Ames GlucometerM® blood glucose meter utilizing Glucostix® reagent strips. Withdrawn blood was replaced with an equal volume of heparinized Ringer's. Sodium bovine insulin was formulated to be delivered at a dose of 0.5 mg/kg body weight. Initially, all candidate enhancers were tested at a concentration of 300 mM. […] The solutes (enhancer and insulin) were suspended in 1 mL peanut oil (except where noted) and mixed using a vortex mixer. Test solutions were vortexed immediately prior to aspiration into individual delivery syringes.
After determination of baseline blood glucose levels, the test solution was administered as an intracolonic bolus and delivered at 1 ml/kg adjusting for either the 100 μl or 250 μl dead volume of the colonic catheter. Blood samples obtained from the jugular catheter were taken at 0, 5, 15, 30, 60, 120, 180 and 240 minutes and analyzed for blood glucose concentration. At the end of the 4 hour test period, the rats were euthanized with an overdose of pentobarbital. Colonic segments from each rat were excised and opened longitudinally along the anti-mesenteric border. Each segment was observed macroscopically for irritation and any abnormality noted. The excised colons were placed on graph paper and measured to approximate colonic surface area. Blood glucose dynamics are reported as the percent change from initial blood glucose levels.
Rats were prepared as described in EXAMPLE 1. […] The open symbols denote the formulations delivered in oil whereas the closed symbol denotes the formulation without oil.

SMILES	% Maximum Decrease 0-60 mins (blood glucose) (enhancer 300 mM)	further results
Nc1ccc(C(=O)[O-])c(O)c1.[Na+] [4-Amino salicylic acid, Na salt]	10%	–
O=C([O-])c1cc(O)ccc1O.[Na+] [2,5-Dihydroxybenzoic acid, Na salt]	1% and 9%	–
COc1ccc(O)c(C(=O)[O-])c1.[Na+] [5-Methoxysalicylic acid, Na salt]	9%	–
O=C([O-])c1ccccc1.[Na+] [Benzoic acid, Na salt]	0%	–
O=C([O-])c1ccccc1O.[Na+] [Na Salicylate, sodium salicylate]	–	rats that died (enhancer 250 mM with insulin 0.5 mg/kg in 1/8 mL peanut oil): 2/4; effect on blood glucose levels over a 4 hour period (enhancer 300 mM formulated without insulin): no effect; decrease in fasting blood glucose levels from pre-exposure levels (significance) (enhancer 300 mM with sodium bovine insulin (0.5 mg/kg) and peanut oil): significant decrease; rats that died (enhancer 600 mM with insulin 0.5 mg/kg and peanut oil, death due to low blood glucose levels): 4/4
[Cl-].[Na+] [NaCl]	2%	–
Nc1ccc(O)c(C(=O)[O-])c1.[Na+] [5-Amino salicylic acid, Na salt]	13%	% Maximum Decrease 0-60 mins (blood glucose) (enhancer 100 mM): 13%
